Laboratory results published in patent US11298337B2, “Parthenolide and its derivative for use in the treatment of axonal damage” (RUHR-UNIVERSITÄT BOCHUM, priority 2015, dated 2022).

Assays:
[1] = tested on: dissociated DRG neurons from adult wild type mice; assay: Axon growth of dissociated adult DRG neurons in culture; settings: adult wt DRG neurons, 2 days in culture
Experimental: DRGs (T8-L6) were harvested, incubated in 0.25% trypsin/EDTA (GE Healthcare, Chalfont St Giles, UK) and 0.3% collagenase type IA (Sigma, St. Louis, US-Mo.) in DMEM (Life Technologies, Carlsbad, US-Calif.) at 37° C. and 5% CO2 for 45 min and mechanically dissociated. Cells were resuspended in DMEM containing 10% fetal bovine serum (GE Healthcare) penicillin/streptomycin (500 U/ml; Merck Millipore, Billerica, US-MA) and 5-fluoro-2′-desoxyuridine (100 nM; Sigma). Cells were cultured on poly-D-lysine (PDL, 0.1 mg/ml, molecular weight <300,000 kDa; Sigma) and laminin (20 μg/ml; Sigma) coated 96 well plates (Nunc, Germany) at 37° C. and 5% CO2.
The effect of the tubulin carboxypeptidase (TCP) inhibitor parthenolide on axon growth of mature neurons was determined in dissociated DRG neurons from adult wild type mice as described above.
DRGs (T8-L6) were harvested, incubated in 0.25% trypsin/EDTA (GE Healthcare, Chalfont St Giles, UK) and 0.3% collagenase type IA (Sigma, St. Louis, US-Mo.) in DMEM (Life Technologies, Carlsbad, US-Calif.) at 37° C. and 5% CO2 for 45 min and mechanically dissociated. […]
Axonal growth was determined upon 48 h incubation by fixation in 4% PFA (Sigma) and immunocytochemical staining with antibodies against NeuN (1:2,000; Abcam, ab177487, Cambridge, UK) and βIII-tubulin (1:2,000; Covance, Princeton, US-N.J.). […]

[2] = tested on: dissociated DRG neurons from adult wild type mice and GSK3α/GSK3β double knock-in mice; assay: Axon growth of DRG neurons with SB216763 or nocodazole (modulation of microtubule dynamics); settings: 2 days in culture
Experimental: Dorsal root ganglion (DRG) neurons were isolated from adult wild type (wt) and GSK3α/GSK3β mice as described in Gobrecht et al., Nature communications. […] DRGs (T8-L6) were harvested, incubated in 0.25% trypsin/EDTA (GE Healthcare, Chalfont St Giles, UK) and 0.3% collagenase type IA (Sigma, St. Louis, US-Mo.) in DMEM (Life Technologies, Carlsbad, US-Calif.) at 37° C. and 5% CO2 for 45 min and mechanically dissociated. Cells were resuspended in DMEM containing 10% fetal bovine serum (GE Healthcare) penicillin/streptomycin (500 U/ml; Merck Millipore, Billerica, US-MA) and 5-fluoro-2′-desoxyuridine (100 nM; Sigma). Cells were cultured on poly-D-lysine (PDL, 0.1 mg/ml, molecular weight <300,000 kDa; Sigma) and laminin (20 μg/ml; Sigma) coated 96 well plates (Nunc, Germany) at 37° C. and 5% CO2.

For `C=C(C(=O)O[C@H]1C/C(C)=C/CC/C(CO)=C/C2OC(=O)C(=C)[C@@H]21)C(O)CO` (stereo in doubt) [cnicin, [(1R,2S,4E,8Z,10S)-8-(hydroxymethyl)-4-methyl-13-methylidene-12-oxo-11-oxabicyclo[8.3.0]trideca-4,8-dien-2-yl] (3S)-3,4-dihydroxy-2-methylidene-butanoate], the axon growth ([1]; 0.1-100 nM, normalized to vehicle) was “significant, but less pronounced axon growth promotion” and the “concentration with strongest effects on axon growth” value [1] was 0.5 nM.

With `Cn1cc(C2=C(c3ccc(Cl)cc3Cl)C(=O)NC2=O)c2ccccc21` [SB216763] the “axon growth promoted by GSK3α^S/A/GSK3β^S/A” value ([2]; 5 μM SB216763, double knock-in DRG neurons) was “efficiently blocked GSK3α^S/A/GSK3β^S/A promoted axon growth”.

In the case of `COC(=O)Nc1nc2ccc(C(=O)c3cccs3)cc2[nH]1` [nocodazole], the “axon growth, effect on GSK3α^S/A/GSK3β^S/A and parthenolide promoted growth” value ([2]; 10 nM nocodazole, alone or with 1 nM parthenolide) is reported as “abrogated the beneficial effects of both GSK3α^S/A/GSK3β^S/A and parthenolide to similar extent”.
